Test results as given in patent US20020137929A1, “1 - (3-heterocyclylphenyl) isothiourea, -isourea, -guanidine and -amidine herbicidal agents” (Intellectual Property Department, BASF Aktiengesellschaft, priority 1998, published 2002).

How the values were obtained:
[1] = tested on: SAGPY (Arrowhead (Pygmaea)); test: Postemergence weed control under flooded paddy conditions; type: in vivo, Sagittaria pygmaea; settings: postemergence weeds, rated 3 to 4 weeks after treatment
Outline: (§1)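 With weeds 3 to 5 cm tall and rice at the 1.5 to 2.5 leaf stage, containers were flooded and water held 1.5 to 3 cm above soil. Compounds in 50/50 v/v aqueous/acetone went into the flood water at about 0.0313 to 0.500 kg/ha a.i. Effects were visually rated 0–9 against controls after three to four weeks in the greenhouse.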

GALAP (Galium) = test: Postemergence herbicidal evaluation; type: in vivo, Galium aparine; settings: postemergence
Outline: (§2)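 ~2-wk seedlings; postemergence spray, 40 psi; vehicle 1:1 acetone:water + 0.5% Tween 20; rate ≈0.0156–0.500 kg/ha; greenhouse hold; scored 4–5 wk after treatment, 0–9 scale vs control; repeat tests averaged.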

ORYSAT (Rice, Tebonnet) [2] = test: Preemergence herbicidal evaluation; type: in vivo, Oryza sativa, (L.) Tebonnet; settings: preemergence, rated 4-5 weeks after treatment, 0-9 scale
Outline: (§3)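 Rating at 4–5 wk post-spray on a 0–9 visual scale vs control. Application: aqueous acetone, ~0.0156–0.500 kg/ha, to soil surface after seeding, preemergence.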

ORYSAT (Rice, Tebonnet) [3] = test: Postemergence herbicidal evaluation; type: in vivo, Oryza sativa, (L.) Tebonnet; settings: postemergence
Outline: as §2

CYPSE (Flatsedge) [4] = test: Postemergence weed control under flooded paddy conditions; type: in vivo, Cyperus serotinus; settings: postemergence weeds, rated 3 to 4 weeks after treatment
Outline: as §1

CASOB (Sicklepod) = test: Postemergence herbicidal evaluation; type: in vivo, Cassia obtusifolia; settings: postemergence
Outline: as §2

AMBEL (Ragweed, Common) = test: Preemergence herbicidal evaluation; type: in vivo, Ambrosia artemisifolia; settings: preemergence, rated 4-5 weeks after treatment, 0-9 scale
Outline: as §3

MOOVA (Monochoria) = test: Preemergence weed control under flooded paddy conditions; type: in vivo, Monochoria vaginalis; settings: rated 3-4 weeks after treatment
Outline: (§4)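 Using flooded silt loam (water 1.5 to 3 cm deep), seeds sown in the top 0.5 cm were exposed preemergence to compound pipetted into the flood at about 0.0313 to 0.500 kg/ha. Effects were scored 0-9 by eye three to four weeks later.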

CYPIR (Rice Flatsedge) = test: Postemergence weed control under flooded paddy conditions; type: in vivo, Cyperus iria; settings: postemergence weeds, rated 3 to 4 weeks after treatment
Outline: as §1

[5] = tested on: GLXMAW (Soybean, Williams); test: Preemergence herbicidal evaluation; type: in vivo, Glycine max, (L.) Merr. cv Williams; settings: preemergence, rated 4-5 weeks after treatment, 0-9 scale
Outline: as §3

[6] = tested on: CHEAL (Lambsquarters, Common); test: Postemergence herbicidal evaluation; type: in vivo, Chenopodium album; settings: postemergence
Outline: as §2

SETVI (Foxtail, Green) = test: Preemergence herbicidal evaluation; type: in vivo, Setaria viridis; settings: preemergence, rated 4-5 weeks after treatment, 0-9 scale
Outline: as §3

CYPSE (Flatsedge) [7] = test: Preemergence weed control under flooded paddy conditions; type: in vivo, Cyperus serotinus; settings: rated 3-4 weeks after treatment
Outline: as §4

ZEAMX (Corn, Field) = test: Postemergence herbicidal evaluation; type: in vivo, Zea mays; settings: postemergence
Outline: as §2

CCOC(=O)CN1C(=O)C(CC(=O)NS(=O)(=O)CC)SC1=Nc1cc(-n2c(=O)cc(C(F)(F)F)n(C)c2=O)c(F)cc1Cl (stereo not shown) [Compound 103, Ethyl 2-{{2-chloro-5-[3,6-dihydro-3-methyl-2,6-dioxo-4-(trifluoromethyl)-1(2H)-pyrimidinyl]-4-fluorophenyl}imino}-5-{[(ethylsulfonyl)carbamoyl]-methyl}-4-oxo-3-thiazolidineacetate]
3.0: herbicidal rating GALAP (GALAP (Galium); rate 0.0313 kg/ha) | herbicidal rating CASOB (CASOB (Sicklepod); rate 0.0313 kg/ha) | herbicidal rating CASOB (CASOB (Sicklepod); rate 0.0625 kg/ha) | herbicidal rating CASOB (CASOB (Sicklepod); rate 0.1250 kg/ha) | GLXMAW rating ([5]; 0.5000 kg/ha) | herbicidal rating CHEAL ([6]; rate 0.0156 kg/ha) | herbicidal rating CHEAL ([6]; rate 0.0313 kg/ha) | SETVI rating (SETVI (Foxtail, Green); 0.1250 kg/ha) | SETVI rating (SETVI (Foxtail, Green); 0.2500 kg/ha)
1.5: herbicidal rating ORYSAT (ORYSAT (Rice, Tebonnet) [3]; rate 0.0156 kg/ha)
5.0: herbicidal rating GALAP (GALAP (Galium); rate 0.0625 kg/ha) | Herbicidal rating CYPSE (CYPSE (Flatsedge) [4]; Rate 0.0313 kg/ha) | Herbicidal rating CYPSE (CYPSE (Flatsedge) [4]; Rate 0.0625 kg/ha) | MOOVA herbicidal effect rating (MOOVA (Monochoria); 0.0313 kg/ha) | herbicidal rating CHEAL ([6]; rate 0.0625 kg/ha) | CYPSE herbicidal effect rating (CYPSE (Flatsedge) [7]; 0.0313 kg/ha) | CYPSE herbicidal effect rating (CYPSE (Flatsedge) [7]; 0.0625 kg/ha)
2.5: herbicidal rating ORYSAT (ORYSAT (Rice, Tebonnet) [3]; rate 0.0625 kg/ha)
3.5: herbicidal rating ORYSAT (ORYSAT (Rice, Tebonnet) [3]; rate 0.1250 kg/ha)
6.0: Herbicidal rating CYPSE (CYPSE (Flatsedge) [4]; Rate 0.1250 kg/ha) | Herbicidal rating CYPSE (CYPSE (Flatsedge) [4]; Rate 0.2500 kg/ha) | Herbicidal rating CYPIR (CYPIR (Rice Flatsedge); Rate 0.0625 kg/ha) | CYPSE herbicidal effect rating (CYPSE (Flatsedge) [7]; 0.1250 kg/ha) | CYPSE herbicidal effect rating (CYPSE (Flatsedge) [7]; 0.2500 kg/ha)
7.0: Herbicidal rating SAGPY ([1]; Rate 0.0313 kg/ha) | herbicidal rating GALAP (GALAP (Galium); rate 0.1250 kg/ha) | MOOVA herbicidal effect rating (MOOVA (Monochoria); 0.0625 kg/ha)
9.0: Herbicidal rating SAGPY ([1]; Rate 0.0625 kg/ha) | Herbicidal rating SAGPY ([1]; Rate 0.1250 kg/ha) | Herbicidal rating SAGPY ([1]; Rate 0.2500 kg/ha) | AMBEL rating (AMBEL (Ragweed, Common); 0.5000 kg/ha) | MOOVA herbicidal effect rating (MOOVA (Monochoria); 0.1250 kg/ha) | MOOVA herbicidal effect rating (MOOVA (Monochoria); 0.2500 kg/ha) | Herbicidal rating CYPIR (CYPIR (Rice Flatsedge); Rate 0.1250 kg/ha) | Herbicidal rating CYPIR (CYPIR (Rice Flatsedge); Rate 0.2500 kg/ha) | herbicidal rating CHEAL ([6]; rate 0.1250 kg/ha) | SETVI rating (SETVI (Foxtail, Green); 0.5000 kg/ha)
5.5: herbicidal rating ZEAMX (ZEAMX (Corn, Field); rate 0.0156 kg/ha)
7.5: herbicidal rating ZEAMX (ZEAMX (Corn, Field); rate 0.0313 kg/ha)
4.0: AMBEL rating (AMBEL (Ragweed, Common); 0.2500 kg/ha) | Herbicidal rating CYPIR (CYPIR (Rice Flatsedge); Rate 0.0313 kg/ha)
8.5: herbicidal rating ZEAMX (ZEAMX (Corn, Field); rate 0.0625 kg/ha) | herbicidal rating ZEAMX (ZEAMX (Corn, Field); rate 0.1250 kg/ha)
2.0: ORYSAT rating (ORYSAT (Rice, Tebonnet) [2]; 0.5000 kg/ha) | herbicidal rating ORYSAT (ORYSAT (Rice, Tebonnet) [3]; rate 0.0313 kg/ha)
0.0: herbicidal rating GALAP (GALAP (Galium); rate 0.0156 kg/ha) | ORYSAT rating (ORYSAT (Rice, Tebonnet) [2]; 0.0313 kg/ha) | ORYSAT rating (ORYSAT (Rice, Tebonnet) [2]; 0.0625 kg/ha) | ORYSAT rating (ORYSAT (Rice, Tebonnet) [2]; 0.1250 kg/ha) | ORYSAT rating (ORYSAT (Rice, Tebonnet) [2]; 0.2500 kg/ha) | herbicidal rating CASOB (CASOB (Sicklepod); rate 0.0156 kg/ha) | AMBEL rating (AMBEL (Ragweed, Common); 0.0313 kg/ha) | AMBEL rating (AMBEL (Ragweed, Common); 0.0625 kg/ha) | AMBEL rating (AMBEL (Ragweed, Common); 0.1250 kg/ha) | GLXMAW rating ([5]; 0.0313 kg/ha) | GLXMAW rating ([5]; 0.0625 kg/ha) | GLXMAW rating ([5]; 0.1250 kg/ha) | GLXMAW rating ([5]; 0.2500 kg/ha) | SETVI rating (SETVI (Foxtail, Green); 0.0313 kg/ha) | SETVI rating (SETVI (Foxtail, Green); 0.0625 kg/ha)

CCS(=O)(=O)NC(=O)CC1SC(=Nc2cc(-n3c(=O)cc(C(F)(F)F)n(C)c3=O)c(F)cc2Cl)N(C)C1=O (stereo not shown) [Compound 105, 2-{{2-Chloro-5-[3,6-dihydro-3-methyl-2,6-dioxo-4-(trifluoromethyl)-1(2H)-pyrimidinyl]-4-fluorophenyl}imino}-N-(ethylsulfonyl)-3-methyl-4-oxo-5-thiazolidineacetamide]
0.0: herbicidal rating GALAP (GALAP (Galium); rate 0.0156 kg/ha) | herbicidal rating GALAP (GALAP (Galium); rate 0.0313 kg/ha) | ORYSAT rating (ORYSAT (Rice, Tebonnet) [2]; 0.1250 kg/ha) | ORYSAT rating (ORYSAT (Rice, Tebonnet) [2]; 0.2500 kg/ha) | ORYSAT rating (ORYSAT (Rice, Tebonnet) [2]; 0.5000 kg/ha) | herbicidal rating ORYSAT (ORYSAT (Rice, Tebonnet) [3]; rate 0.0156 kg/ha) | herbicidal rating ORYSAT (ORYSAT (Rice, Tebonnet) [3]; rate 0.0313 kg/ha) | herbicidal rating ORYSAT (ORYSAT (Rice, Tebonnet) [3]; rate 0.0625 kg/ha) | herbicidal rating CASOB (CASOB (Sicklepod); rate 0.0156 kg/ha) | herbicidal rating CASOB (CASOB (Sicklepod); rate 0.0313 kg/ha) | herbicidal rating CASOB (CASOB (Sicklepod); rate 0.0625 kg/ha) | GLXMAW rating ([5]; 0.1250 kg/ha) | GLXMAW rating ([5]; 0.2500 kg/ha) | GLXMAW rating ([5]; 0.5000 kg/ha) | herbicidal rating CHEAL ([6]; rate 0.0156 kg/ha) | herbicidal rating CHEAL ([6]; rate 0.0313 kg/ha) | SETVI rating (SETVI (Foxtail, Green); 0.1250 kg/ha)
1.0: herbicidal rating GALAP (GALAP (Galium); rate 0.0625 kg/ha) | herbicidal rating CASOB (CASOB (Sicklepod); rate 0.1250 kg/ha) | AMBEL rating (AMBEL (Ragweed, Common); 0.1250 kg/ha)
4.0: AMBEL rating (AMBEL (Ragweed, Common); 0.5000 kg/ha)
5.0: Herbicidal rating SAGPY ([1]; Rate 0.0625 kg/ha) | Herbicidal rating SAGPY ([1]; Rate 0.1250 kg/ha) | Herbicidal rating CYPSE (CYPSE (Flatsedge) [4]; Rate 0.0625 kg/ha) | Herbicidal rating CYPIR (CYPIR (Rice Flatsedge); Rate 0.0313 kg/ha) | CYPSE herbicidal effect rating (CYPSE (Flatsedge) [7]; 0.0625 kg/ha) | herbicidal rating ZEAMX (ZEAMX (Corn, Field); rate 0.0313 kg/ha)
3.5: herbicidal rating ZEAMX (ZEAMX (Corn, Field); rate 0.0156 kg/ha)
2.0: herbicidal rating GALAP (GALAP (Galium); rate 0.1250 kg/ha) | herbicidal rating ORYSAT (ORYSAT (Rice, Tebonnet) [3]; rate 0.1250 kg/ha) | Herbicidal rating CYPSE (CYPSE (Flatsedge) [4]; Rate 0.0313 kg/ha) | herbicidal rating CHEAL ([6]; rate 0.0625 kg/ha) | herbicidal rating CHEAL ([6]; rate 0.1250 kg/ha) | CYPSE herbicidal effect rating (CYPSE (Flatsedge) [7]; 0.0313 kg/ha)
3.0: Herbicidal rating SAGPY ([1]; Rate 0.0313 kg/ha) | AMBEL rating (AMBEL (Ragweed, Common); 0.2500 kg/ha) | SETVI rating (SETVI (Foxtail, Green); 0.2500 kg/ha) | SETVI rating (SETVI (Foxtail, Green); 0.5000 kg/ha)
9.0: Herbicidal rating CYPSE (CYPSE (Flatsedge) [4]; Rate 0.2500 kg/ha) | MOOVA herbicidal effect rating (MOOVA (Monochoria); 0.2500 kg/ha) | Herbicidal rating CYPIR (CYPIR (Rice Flatsedge); Rate 0.2500 kg/ha) | CYPSE herbicidal effect rating (CYPSE (Flatsedge) [7]; 0.2500 kg/ha)
6.0: MOOVA herbicidal effect rating (MOOVA (Monochoria); 0.0313 kg/ha) | herbicidal rating ZEAMX (ZEAMX (Corn, Field); rate 0.0625 kg/ha)
7.0: Herbicidal rating SAGPY ([1]; Rate 0.2500 kg/ha) | Herbicidal rating CYPSE (CYPSE (Flatsedge) [4]; Rate 0.1250 kg/ha) | MOOVA herbicidal effect rating (MOOVA (Monochoria); 0.0625 kg/ha) | MOOVA herbicidal effect rating (MOOVA (Monochoria); 0.1250 kg/ha) | Herbicidal rating CYPIR (CYPIR (Rice Flatsedge); Rate 0.0625 kg/ha) | Herbicidal rating CYPIR (CYPIR (Rice Flatsedge); Rate 0.1250 kg/ha) | CYPSE herbicidal effect rating (CYPSE (Flatsedge) [7]; 0.1250 kg/ha) | herbicidal rating ZEAMX (ZEAMX (Corn, Field); rate 0.1250 kg/ha)
